Measurements from patent US20150105252A1, “SUBSTITUTED PYRAZOLES AS HERBICIDES” (E I DU PONT DE NEMOURS AND COMPANY, priority 2013, published 2015).

Key:
crabgrass, Brazil = test: Test F preemergence; type: in vivo, Digitaria horizontalis
Method in brief: (§1)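 Percent-control style visual scores, from 0 (no effect) to 100 (complete control), were given relative to controls. Treatment timing: preemergence on silt loam plantings, or postemergence at 1- to 4-leaf stage. Evaluation came 14 to 21 days after spraying, greenhouse conditions.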

kochia [1] = test: Test D preemergence; type: in vivo, Kochia scoparia; settings: scale 0 to 100
Method in brief: (§2)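 Preemergence: seeds sown in silt loam soil and sprayed with test chemical in non-phytotoxic solvent mixture with surfactant. Postemergence: plants grown in peat/vermiculite medium, sprayed at 2–18 cm (1- to 4-leaf stage). Visual rating versus untreated controls after 14–21 days, 0 (no effect) to 100 (complete control).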

barley, winter = test: Test D preemergence; type: in vivo, Hordeum vulgare; settings: scale 0 to 100
Method in brief: as §2

barley, spring = test: Test D preemergence; type: in vivo, Hordeum vulgare; settings: scale 0 to 100
Method in brief: as §2

morningglory = test: Test F preemergence; type: in vivo, Ipomoea coccinea
Method in brief: as §1

bluegrass = test: Test D postemergence; type: in vivo, Poa annua; settings: scale 0 to 100
Method in brief: as §2

kochia [2] = test: Test D postemergence; type: in vivo, Kochia scoparia; settings: scale 0 to 100
Method in brief: as §2

lambsquarters = test: Test D preemergence; type: in vivo, Chenopodium album; settings: scale 0 to 100
Method in brief: as §2

kochia [3] = test: Test F preemergence; type: in vivo, Kochia scoparia
Method in brief: as §1

speedwell = test: Test D preemergence; type: in vivo, Veronica persica; settings: scale 0 to 100
Method in brief: as §2

field violet = test: Test D preemergence; type: in vivo, Viola arvensis; settings: scale 0 to 100
Method in brief: as §2

chamomile = test: Test D postemergence; type: in vivo, Matricaria inodora; settings: scale 0 to 100
Method in brief: as §2

field poppy = test: Test D postemergence; type: in vivo, Papaver rhoeas; settings: scale 0 to 100
Method in brief: as §2

deadnettle = test: Test D postemergence; type: in vivo, Lamium amplexicaule; settings: scale 0 to 100
Method in brief: as §2

[4] = Preemergence, 31 g ai/ha, scale 0 to 100
[5] = Preemergence, 62 g ai/ha, scale 0 to 100
[6] = Preemergence, 125 g ai/ha, scale 0 to 100
[7] = preemergence, 8 g ai/ha, scale 0 to 100, 100 is complete control
[8] = preemergence, 16 g ai/ha, scale 0 to 100, 100 is complete control
[9] = Preemergence, 16 g ai/ha, scale 0 to 100

CCCc1cc(C(=O)NCC(F)(F)F)nn1Cc1ccnc(C(F)(F)F)c1 [Compound 105]
85: Plant response rating, Barley, Spring (barley, spring; 250 g ai/ha)
20: Plant response rating, Morningglory (morningglory; [7]) | Deadnettle plant response rating (deadnettle; postemergence, 62 g ai/ha)
75: Kochia plant response rating (kochia [2]; Postemergence, 31 g ai/ha) | Kochia plant response rating (kochia [2]; postemergence, 62 g ai/ha)
65: Plant response rating, Barley, Spring (barley, spring; 125 g ai/ha) | Chamomile plant response rating (chamomile; Postemergence, 125 g ai/ha) | Field Poppy plant response rating (field poppy; Postemergence, 31 g ai/ha)
98: Plant response rating, Crabgrass, Brazil (crabgrass, Brazil; [4])
55: Deadnettle plant response rating (deadnettle; Postemergence, 125 g ai/ha)
100: Plant response rating, Crabgrass, Brazil (crabgrass, Brazil; [5]) | Plant response rating, Crabgrass, Brazil (crabgrass, Brazil; [6]) | Plant response rating, Kochia (kochia [1]; 62 g ai/ha) | Plant response rating, Kochia (kochia [1]; 125 g ai/ha) | Plant response rating, Kochia (kochia [1]; 250 g ai/ha) | Plant response rating, Lambsquarters (lambsquarters; 31 g ai/ha) | Plant response rating, Lambsquarters (lambsquarters; 62 g ai/ha) | Plant response rating, Lambsquarters (lambsquarters; 125 g ai/ha) | Plant response rating, Lambsquarters (lambsquarters; 250 g ai/ha) | Plant response rating, Kochia (kochia [3]; [4]) | Plant response rating, Kochia (kochia [3]; [5]) | Plant response rating, Kochia (kochia [3]; [6]) | Plant response rating, Speedwell (speedwell; 31 g ai/ha) | Plant response rating, Speedwell (speedwell; 62 g ai/ha) | Plant response rating, Speedwell (speedwell; 125 g ai/ha) | Plant response rating, Speedwell (speedwell; 250 g ai/ha) | Plant response rating, Field Violet (field violet; 31 g ai/ha) | Plant response rating, Field Violet (field violet; 62 g ai/ha) | Plant response rating, Field Violet (field violet; 125 g ai/ha) | Plant response rating, Field Violet (field violet; 250 g ai/ha)
60: Deadnettle plant response rating (deadnettle; Postemergence, 250 g ai/ha)
40: Plant response rating, Crabgrass, Brazil (crabgrass, Brazil; [8]) | Plant response rating, Barley, Winter (barley, winter; 62 g ai/ha) | Plant response rating, Barley, Spring (barley, spring; 62 g ai/ha) | Bluegrass plant response rating (bluegrass; Postemergence, 125 g ai/ha)
0: Plant response rating, Kochia (kochia [3]; [7])
50: Chamomile plant response rating (chamomile; postemergence, 62 g ai/ha)
5: Plant response rating, Crabgrass, Brazil (crabgrass, Brazil; [7]) | Plant response rating, Barley, Winter (barley, winter; 31 g ai/ha)
80: Kochia plant response rating (kochia [2]; Postemergence, 125 g ai/ha) | Kochia plant response rating (kochia [2]; Postemergence, 250 g ai/ha) | Plant response rating, Kochia (kochia [3]; [8]) | Chamomile plant response rating (chamomile; Postemergence, 250 g ai/ha) | Field Poppy plant response rating (field poppy; Postemergence, 125 g ai/ha) | Field Poppy plant response rating (field poppy; postemergence, 62 g ai/ha)
15: Plant response rating, Barley, Spring (barley, spring; 31 g ai/ha) | Bluegrass plant response rating (bluegrass; Postemergence, 31 g ai/ha) | Bluegrass plant response rating (bluegrass; postemergence, 62 g ai/ha) | Deadnettle plant response rating (deadnettle; Postemergence, 31 g ai/ha)
25: Plant response rating, Morningglory (morningglory; [4]) | Plant response rating, Morningglory (morningglory; [8]) | Chamomile plant response rating (chamomile; Postemergence, 31 g ai/ha)
90: Plant response rating, Morningglory (morningglory; [5])
70: Plant response rating, Barley, Winter (barley, winter; 125 g ai/ha) | Bluegrass plant response rating (bluegrass; Postemergence, 250 g ai/ha)
95: Plant response rating, Kochia (kochia [1]; 31 g ai/ha) | Plant response rating, Barley, Winter (barley, winter; 250 g ai/ha) | Plant response rating, Morningglory (morningglory; [6]) | Field Poppy plant response rating (field poppy; Postemergence, 250 g ai/ha)

CCOc1cc(C(=O)NC(C)C)nn1Cc1ccnc(C(F)(F)F)c1 [Compound 188]
45: Deadnettle plant response rating (deadnettle; Postemergence, 125 g ai/ha)
35: Plant response rating, Crabgrass, Brazil (crabgrass, Brazil; [7]) | Plant response rating, Barley, Winter (barley, winter; 31 g ai/ha) | Bluegrass plant response rating (bluegrass; Postemergence, 250 g ai/ha) | Deadnettle plant response rating (deadnettle; Postemergence, 31 g ai/ha) | Deadnettle plant response rating (deadnettle; postemergence, 62 g ai/ha)
100: Plant response rating, Crabgrass, Brazil (crabgrass, Brazil; [9]) | Plant response rating, Crabgrass, Brazil (crabgrass, Brazil; [5]) | Plant response rating, Crabgrass, Brazil (crabgrass, Brazil; [6]) | Plant response rating, Kochia (kochia [1]; 62 g ai/ha) | Plant response rating, Kochia (kochia [1]; 125 g ai/ha) | Plant response rating, Kochia (kochia [1]; 250 g ai/ha) | Plant response rating, Barley, Winter (barley, winter; 250 g ai/ha) | Plant response rating, Morningglory (morningglory; [6]) | Plant response rating, Lambsquarters (lambsquarters; 62 g ai/ha) | Plant response rating, Lambsquarters (lambsquarters; 125 g ai/ha) | Plant response rating, Lambsquarters (lambsquarters; 250 g ai/ha) | Plant response rating, Kochia (kochia [3]; [6]) | Plant response rating, Speedwell (speedwell; 62 g ai/ha) | Plant response rating, Speedwell (speedwell; 125 g ai/ha) | Plant response rating, Speedwell (speedwell; 250 g ai/ha) | Plant response rating, Field Violet (field violet; 62 g ai/ha) | Plant response rating, Field Violet (field violet; 125 g ai/ha) | Plant response rating, Field Violet (field violet; 250 g ai/ha)
75: Plant response rating, Barley, Spring (barley, spring; 62 g ai/ha) | Kochia plant response rating (kochia [2]; Postemergence, 31 g ai/ha) | Kochia plant response rating (kochia [2]; postemergence, 62 g ai/ha) | Chamomile plant response rating (chamomile; Postemergence, 250 g ai/ha) | Field Poppy plant response rating (field poppy; Postemergence, 125 g ai/ha)
20: Bluegrass plant response rating (bluegrass; Postemergence, 31 g ai/ha) | Bluegrass plant response rating (bluegrass; postemergence, 62 g ai/ha)
95: Plant response rating, Barley, Spring (barley, spring; 250 g ai/ha) | Field Poppy plant response rating (field poppy; Postemergence, 250 g ai/ha)
98: Plant response rating, Kochia (kochia [3]; [5])
0: Plant response rating, Kochia (kochia [3]; [7])
70: Plant response rating, Barley, Winter (barley, winter; 62 g ai/ha) | Plant response rating, Morningglory (morningglory; [5]) | Chamomile plant response rating (chamomile; Postemergence, 125 g ai/ha)
30: Plant response rating, Morningglory (morningglory; [9]) | Bluegrass plant response rating (bluegrass; Postemergence, 125 g ai/ha)
55: Deadnettle plant response rating (deadnettle; Postemergence, 250 g ai/ha)
60: Field Poppy plant response rating (field poppy; Postemergence, 31 g ai/ha) | Field Poppy plant response rating (field poppy; postemergence, 62 g ai/ha)
65: Plant response rating, Barley, Spring (barley, spring; 31 g ai/ha) | Plant response rating, Morningglory (morningglory; [7]) | Chamomile plant response rating (chamomile; Postemergence, 31 g ai/ha) | Chamomile plant response rating (chamomile; postemergence, 62 g ai/ha)
85: Plant response rating, Barley, Spring (barley, spring; 125 g ai/ha) | Kochia plant response rating (kochia [2]; Postemergence, 250 g ai/ha)
80: Plant response rating, Barley, Winter (barley, winter; 125 g ai/ha) | Kochia plant response rating (kochia [2]; Postemergence, 125 g ai/ha)
